Laboratory results published in patent publication US8389730B2, “Compositions and methods for the treatment of disease associated with TRP-P8 expression” (Dendreon Corporation, priority 2003, dated 2013).

Experiments:
Trp-p8 [1] = target: T1, Trp-p8 (Homo sapiens, UniProt Q7Z2W7, T58I); assay: Calcium flux assay (Fura-2) for agonists in CHO/Trp-p8 cells at 37° C.; format: cell-based
T1 construct: expressed in transfected cells
Experimental: FIGS. 2A-2C are graphs depicting Trp-p8 agonist-induced increases in intracellular calcium as determined by a calcium flux assay performed at 37° C.
Calcium influx was measured using a Flexstation Microplate Fluorescence Plate Reader (Molecular Devices; Sunnyvale, Calif.). A typical assay for calcium flux was performed as follows. Cells in DMEM/Ham's F-12 based medium, typically at a density of 30,000 cells/well/100 were plated in a 96-well black-walled, clear bottomed tissue culture plate (Greiner Bio-one) and incubated for 16-20 hours at 37° C. Cells in each well were incubated for one hour at 37° C. with a Fura2-AM Fluorescent Dye/Pluronic […] mixture (Molecular Probes; Eugene, Oreg.) and dissolved in the medium containing Probenecid. […]
Typically, the above described HEPES/HBSS-based buffer containing either no additional calcium or with calcium to increase the concentration to 2 mM and various concentrations of compounds (at 5-times the final concentrations) were added to each well using the robotic multi-channel pipettor. […] Signals were read with dual excitation wavelengths of 340 and 380 nm and emission wavelength of 510 nm with a cut-off filter at 495 nm. The signal was reported as the ratio of emission when excited at 340 nm to the emission when excited at 380 nm [Relative Fluorescence Units (RFU)]. […]

Trp-p8 orthologues = details: reported by McKemy et al. and Peier et al.; cited from earlier work
Trp-p8 [2] = target: T1, Trp-p8; assay: Cell viability (ATP) assay for Trp-p8 antagonists: protection of CHO/Trp-p8 cells from toxic control agonist D-1607; format: cell-based; details: 37° C., ATP level relative to DMSO; for Rel. Viab. (%) at 10 μM: Table 3, Formula VII antagonists, 10 μM compound plus toxic concentration of control agonist, CHO/Trp-p8 cells; for Relative Viability (%) at 10 μM: Table 2, Formula VIII antagonists, 10 μM compound plus toxic concentration of control agonist D-1607, CHO/Trp-p8 cells
Experimental: FIG. 4 is a graph depicting exemplary results from a primary screen for Trp-p8 antagonists using the ATP viability assay, described herein, with CHO/Trp-p8 cells at 37° C. CHO/Trp-p8 cells were exposed to compounds, at different concentrations, in 1% DMSO or 1% DMSO in combination with a toxic concentration of the Trp-p8 agonist 1607. The viability of cells was measured after 24-26 hours at 37° C. using the ATP assay.
As a primary screen for efficacy and specificity for agonists, both the non-transfected CHO and CHO/Trp-p8 cells were exposed to 10 μM of test compounds in 1% dimethylsulfoxide (DMSO) or 1% DMSO (control) in a 96-well black walled, black-bottomed, cell-culture treated plate. DMSO was the solvent for all of the compounds tested. After 24-26 hours at 37° C., the cells were lysed and ATP concentration determined via a chemiluminescence assay using a commercially available reagent kit—Cell Titer-Glo (Promega; Madison, Wis.). […] (EC50 is defined herein as the agonist concentration at which there is a 50% reduction in cell viability).
Trp-p8 antagonists were identified by employing a cell viability assay with CHO/Trp-p8 cells at 37° C. (see Example 7) with the following modification. Within the context of the present invention, compounds that protect CHO/Trp-p8 cells from the toxic effect of a control agonist thereby maintaining the viability of the CHO/Trp-p8 cell exposed to a Trp-p8 agonist is defined as antagonist. As a primary screen for antagonists, CHO/Trp-p8 cells were exposed to 10 μM of test compounds in 1% dimethylsulfoxide (DMSO) or 1% DMSO plus a toxic concentration of a control agonist, D-1607.

Trp-p8 [3] = details: cold-sensitive neurons, Trp-p8 in Xenopus oocytes, HEK293 and CHO cells; cited from earlier work

T1 sequence (Q7Z2W7 whole entry T58I): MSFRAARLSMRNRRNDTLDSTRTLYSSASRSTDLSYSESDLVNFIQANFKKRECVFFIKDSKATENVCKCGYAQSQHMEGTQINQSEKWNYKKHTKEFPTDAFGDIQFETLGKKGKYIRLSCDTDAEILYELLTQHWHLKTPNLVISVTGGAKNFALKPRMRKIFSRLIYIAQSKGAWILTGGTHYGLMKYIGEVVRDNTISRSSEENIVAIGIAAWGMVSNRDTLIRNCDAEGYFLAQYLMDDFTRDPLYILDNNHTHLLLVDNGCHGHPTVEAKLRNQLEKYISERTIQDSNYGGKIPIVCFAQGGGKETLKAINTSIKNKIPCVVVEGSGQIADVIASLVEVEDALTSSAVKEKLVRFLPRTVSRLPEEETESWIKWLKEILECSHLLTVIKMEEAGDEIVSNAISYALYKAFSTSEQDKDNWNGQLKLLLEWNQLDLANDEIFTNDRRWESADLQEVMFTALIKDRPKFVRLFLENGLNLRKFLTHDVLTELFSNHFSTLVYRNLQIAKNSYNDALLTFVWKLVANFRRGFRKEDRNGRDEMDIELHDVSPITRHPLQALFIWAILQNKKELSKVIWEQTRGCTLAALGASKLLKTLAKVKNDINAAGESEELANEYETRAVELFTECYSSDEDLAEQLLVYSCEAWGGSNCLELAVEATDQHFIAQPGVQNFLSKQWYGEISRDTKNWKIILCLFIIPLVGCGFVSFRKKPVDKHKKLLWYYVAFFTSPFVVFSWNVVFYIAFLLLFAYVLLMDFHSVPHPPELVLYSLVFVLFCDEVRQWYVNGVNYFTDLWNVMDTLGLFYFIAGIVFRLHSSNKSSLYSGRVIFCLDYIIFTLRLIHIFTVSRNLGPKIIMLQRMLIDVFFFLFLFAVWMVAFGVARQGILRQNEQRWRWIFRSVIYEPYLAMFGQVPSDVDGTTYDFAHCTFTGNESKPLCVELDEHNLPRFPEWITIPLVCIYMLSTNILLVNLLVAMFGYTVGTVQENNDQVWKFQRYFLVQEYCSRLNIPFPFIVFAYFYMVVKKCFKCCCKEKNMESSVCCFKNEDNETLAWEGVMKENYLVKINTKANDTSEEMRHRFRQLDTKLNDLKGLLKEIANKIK

Structure (SMILES) | Rel. Viab. (%) at 10 μM (Trp-p8 [2]) [%] | Relative Viability (%) at 10 μM (Trp-p8 [2]) [%] | other results
CC(C)[C@@H]1CC[C@@H](C)C[C@H]1C(=O)NCCc1ccccc1 [compound 1603] |  |  | Increase in intracellular calcium (FIG. 2C) (Trp-p8 [1]; CHO/Trp-p8 cells): specific, concentration-dependent response
C[C@H](CCC(=O)O)C[C@H](C)C[C@H](C)C(=O)/C=C(\O)[C@H](C)C[C@H](C)C/C=C/[C@@H](C)[C@@H](O)[C@@H](C)[C@@H](O)C[C@@H]1CC[C@@](C)([C@H]2CC[C@@](C)([C@@H](C)O)O2)O1 [Ionomycin, reference compound] |  |  | Response to positive control in calcium flux assay (FIG. 2A) (Trp-p8 [1]; 1 μM, CHO and CHO/Trp-p8 cells): respond similarly
O=C1NC(c2cccc([N+](=O)[O-])c2)=CCN1c1ccccc1O [Icilin, 1-(2-hydroxyphenyl)-4-(3-nitrophenyl)-1,2,3,6-tetrahydropyrimidine-2-one] |  |  | Effective concentration in inducing calcium influx (Trp-p8 orthologues): 0.1 to 1 µM
Cc1nc2sc(C(c3cccs3)N3CCN(C(c4ccccc4)c4ccccc4)CC3)c(O)n2n1 (stereo not shown) [compound 1039] | 84 |  | 
Cc1nc(N2CCOCC2)nc(N2CCN(c3ccccc3)CC2)c1[N+](=O)[O-] [compound 69] | 106 |  | 
CC(Oc1ccccc1)C(=O)N[C@@H]1C[C@H](C)CC[C@H]1C(C)C (stereo partly shown) [compound 2018] |  | 103 | 
CC(C)[C@@H]1CC[C@@H](C)C[C@H]1NC(=O)COc1ccccc1[N+](=O)[O-] [compound 2045] |  | 191 | 
N#Cc1nc(COc2ccccc2F)oc1N1CCN(c2ccccc2)CC1 [compound 711] | 94 |  | 
CC(C)[C@@H]1CC[C@@H](C)C[C@H]1NS(=O)(=O)c1cc(Br)c(Br)s1 [compound 2134] |  | 63 | 
CC(C)[C@@H]1CC[C@@H](C)C[C@H]1C(=O)Nc1nnc(Sc2ccnc3cc(Cl)ccc23)s1 [compound 3026] |  | 86 | 
CC(C)[C@@H]1CC[C@@H](C)C[C@H]1NCc1c[nH]nc1-c1ccccc1 [compound 2745] |  | 62 | 
O=[N+]([O-])c1cc(S(=O)(=O)C(F)(F)F)ccc1N1CCN(c2ccccc2)CC1 [compound 107] | 98 |  | 
O=C1C(c2ccc(Cl)cc2)N(C2CCCCC2)C(=O)CN1C1CCCC1 (stereo not shown) [compound 1284] | 95 |  | 
CC(C)[C@@H]1CC[C@@H](C)CC1C(=O)N1c2ccccc2CC1C (stereo partly shown) [compound 1588] |  | 88 | 
CC(C)[C@@H]1CC[C@@H](C)C[C@H]1OC(=O)N1CCCc2ccccc21 [compound 1465] |  | 90 | 
CC(C)[C@@H]1CC[C@@H](C)C[C@H]1NC(=O)SCc1ccccc1 [compound 2291] |  | 87 | 
CC(C)[C@@H]1CC[C@@H](C)C[C@H]1NC(=O)[C@@]12CC[C@@](C)(C(=O)O1)C2(C)C [compound 2046] |  | 89 | 
CC(C)[C@@H]1CC[C@@H](C)C[C@H]1OC(=O)N1c2ccccc2CC1C (stereo partly shown) [compound 1475] |  | 100 | 
FC(F)(F)Oc1ccc(Nc2nc(N3CCCCCC3)nc(N3CCN(C45CC6CC(CC(C6)C4)C5)CC3)n2)cc1 [compound 809] | 89 |  | 
O=C1CN(c2nc3ccccc3c(=O)n2Cc2ccccc2)CC(=O)N1CCc1ccccc1 [compound 1069] | 86 |  | 
CCCCOc1ccc(-c2n[nH]cc2CN[C@@H]2C[C@H](C)CC[C@H]2C(C)C)cc1 [compound 2777] |  | 83 | 
O=C1c2ccccc2-c2onc3c(N4CCN(C5CCCCC5)CC4)cc(Nc4ccc5c(c4)OCCO5)c1c23 [compound 882] | 86 |  | 
CC(C)[C@@H]1CC[C@@H](C)C[C@H]1NC(=O)NCCC1=CCCCC1 [compound 1883] |  | 84 | 
CC1CCC(C(C)C)C(O)C1 (stereo not shown) [Menthol, 2-isopropyl-5-methyl-cyclohexanol] |  |  | Higher temperature threshold reported for Trp-p8 activation (Trp-p8 [3]): 30-32 °C; Effective concentration in inducing calcium influx (Trp-p8 orthologues): 10 to 100 µM
CC(C)[C@@H]1CC[C@@H](C)C[C@H]1OCC(=O)NCCC1=CCCCC1 [compound 1743] |  | 97 | 
CC(C)[C@@H]1CC[C@@H](C)C[C@H]1NC(=O)[C@@H]1C[C@H]1c1ccccc1 [compound 2013] |  | 95 | 
COc1ccc(N2CCN(CC(O)COC3CC(C)CCC3C(C)C)CC2)cc1.Cl.Cl (stereo not shown) [compound 93] | 111 |  | 
